Results on one compound are retold here after patent US20070049559A1, “Preparations comprising arylazine substituted with a carbonylic moiety to increase the activity of Gelatinase A in ocular cells” (priority 2005, published 2007).

For the assay, the system named is MT-MMP. The assay can be described thus: Thiopeptolide assay of cell-associated gelatinase activity ascribed to MT-MMP in TM cells. The format is cell-based, Rhesus monkey. Particulars: benzathine (as diacetate salt) combined with an equal weight of test compound in the incubation medium. The method, then: Unless specifically noted, all molecules tested were prepared as stock solutions in dimethyl sulfoxide (DMSO) with a final concentration of 10 mg/ml. The stocks were stored in a dessicator at −20 degrees Celsius. In testing the molecules, the molecules were diluted to final concentrations of 0.3 ug/ml and 15 ug/ml in a simplified culture medium based on Ames' medium, called Concanavalin A (Con A) conditioning medium (CACM). The monkey TM cells were incubated with the test molecules for 48 hours.
Control medium of CACM plus DMSO and a positive control with 5 ug/ml Con A plus DMSO were run in parallel. […]
At the end of the incubation period, by means of a spectrophoto-metric plate reader, the optical density (OD) at 410 nm was determined for each well after automatic subtraction of a blank value for a well containing reaction mixture but without cells. The average OD at the two-hour end point for each test molecule at all concentrations in triplicate was calculated. […] As an alternate to the end point OD reading, one may use the mean rate of appearance of the reaction product (mean V), calculated from the best linear fit of the data to absorbance vs. time. […]

SMILES strings stand for the structures.

Turning to `O=C(O)c1cc(O)c2ccccc2n1` [Kynurenic Acid, kynurenic acid], the “MT-MMP activity in combination with benzathine” value is listed as “evince MT-MMP activity”.
